# Laboratory results: paper PMC6934184, “Selective DNA-PKcs inhibition extends the therapeutic index of localized radiotherapy and chemotherapy” (The Journal of Clinical Investigation, 2019)
# Target: T1, PRKG2 (PKG2) (Homo sapiens, UniProt Q13237)
# T1 construct: purchased Thermo Fisher Scientific (Life Technologies) SelectScreen
# Assay: SelectScreen Z'LYTE
# Assay type: biochemical
# How it was run: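 Percent values come from Thermo SelectScreen profiling of NU5455, combining activity and binding assays. CSF1R was run in Z'LYTE format at Km app ATP, and CAMK1 in Adapta format with ATP listed at 10.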
# T1 sequence (Q13237 whole entry): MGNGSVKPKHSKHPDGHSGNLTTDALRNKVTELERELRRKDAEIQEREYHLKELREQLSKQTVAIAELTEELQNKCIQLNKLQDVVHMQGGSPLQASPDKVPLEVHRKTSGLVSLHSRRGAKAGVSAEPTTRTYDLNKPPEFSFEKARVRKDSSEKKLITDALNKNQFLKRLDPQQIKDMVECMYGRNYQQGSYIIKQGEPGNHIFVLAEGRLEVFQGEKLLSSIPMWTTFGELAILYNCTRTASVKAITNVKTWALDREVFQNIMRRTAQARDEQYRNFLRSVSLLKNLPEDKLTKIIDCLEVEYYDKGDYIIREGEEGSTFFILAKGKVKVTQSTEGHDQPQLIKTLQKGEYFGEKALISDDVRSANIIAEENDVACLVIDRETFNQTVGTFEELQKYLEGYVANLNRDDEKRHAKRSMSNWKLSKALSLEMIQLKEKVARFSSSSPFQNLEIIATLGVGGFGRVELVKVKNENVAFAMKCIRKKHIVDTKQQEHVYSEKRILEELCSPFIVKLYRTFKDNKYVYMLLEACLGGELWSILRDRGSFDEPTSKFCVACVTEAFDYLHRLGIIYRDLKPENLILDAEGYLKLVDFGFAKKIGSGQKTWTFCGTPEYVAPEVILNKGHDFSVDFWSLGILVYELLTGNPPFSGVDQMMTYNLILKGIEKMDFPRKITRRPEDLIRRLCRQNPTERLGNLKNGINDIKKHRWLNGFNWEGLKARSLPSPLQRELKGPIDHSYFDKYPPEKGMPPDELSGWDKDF
smiles,measurement,value
CN(C(=O)CN1CCOCC1)c1ccc2sc3c(-c4cccc5c(=O)cc(N6CC7CCC(C6)O7)oc45)cccc3c2c1 [NU5455],inhibition at 1 µM,-5.1%
